Source: paper PMC8658016, “Identification of New Compounds with Anticonvulsant and Antinociceptive Properties in a Group of 3-substituted (2,5-dioxo-pyrrolidin-1-yl)(phenyl)-Acetamides” (International Journal of Molecular Sciences, 2021)

Columns and labels:
in vivo = conditions: male, CD-1, mouse, ip
mice [1] = experiment: Psychomotor 6 Hz (32 mA) seizure test; assay type: in vivo, mouse; conditions: mice i.p.
mice [2] = experiment: Oxaliplatin-induced peripheral neuropathy, tactile allodynia (von Frey); assay type: in vivo, mouse; conditions: for pain sensitivity threshold (von Frey), early phase / pain threshold as % of the baseline value, early phase: 3 h after oxaliplatin; for pain threshold (von Frey), late phase / pain threshold as % of the baseline value, late phase: 7 days after oxaliplatin
Source text: To investigate the analgesic activity of compound 14 in neuropathic pain, we used the OXPT-induced peripheral neuropathy model. OXPT directly affects neurons, which results in the upregulation of TRPM8 and TRPA1 and the downregulation of Kv4.3 neuronal channels. Moreover, OXPT forms adduct with mitochondrial DNA and, in this way, change the expression of membrane-associated protein such as channels. All these effects finally lead to peripheral and central sensitization. The neuropathy manifests as the decrease in the pain threshold and can be observed in hours or in days after OXPT administration, which is called the early or late phase of neuropathic pain, respectively. We tested the influence of compound 14 on tactile allodynia using the von Frey method 3 h and 7 days after the induction of neuropathy. In the early phase, we observed a significant decrease in the value of mean force that caused a paw withdrawal reaction (1.84 ± 0.05 g) (60.9% of the baseline) compared to non-treated animals (3.02 ± 0.07 g) (the baseline). In the late phase, the pain threshold was 1.97 ± 0.07 (65.2% of the baseline). The observed tactile allodynia was attenuated by compound 14, which elevated the pain sensitivity threshold in the early phase in a dose-dependent manner. (Figure 7) (2.61 ± 0.08 g, 2.94 ± 0.04 g, and 3.05 ± 0.08 g at the dose of 40 mg/kg, 60 mg/kg, and 80 mg/kg, respectively, which corresponded to 86.4%, 97.3%, and 100.9% of the baseline value). In the late phase, the pain threshold values were 2.45 ± 0.06 g, 2.88 ± 0.04 g, and 2.98 ± 0.06 g, which corresponded to 81.1%, 95.3%, and 98.6% of the baseline value.
(§1) The experiments were conducted on adult male Albino Swiss mice (CD-1, 18–25 g) and male Wistar rats (Krf:(WI) WU), 180–250 g) as described previously. The minimum number of animals used needed to obtain definite and normally distributed results with the utilized test. Behavioral measures were scored by trained observers, which were blind to experimental conditions. The following devices were used in the experiments: Analgesy Meter (37215, Ugo Basile), Plantar Test Apparatus (EFV5, Commat Ltd., Turkey), Plethysmometer (Plethysmometer 7140, Ugo Basile), Electronic von Frey unit (BIOSEB, France). All procedures were performed according to the European Union Directive of 22 September 2010 (2010/63/EU) and approved by the Local Ethics Committee for Experiments on Animals in Krakow, Poland (resolution no. 105/2016).
Figure 7 Antiallodynic effects of compound 14 in the tactile allodynia evaluated in the von Frey test in oxaliplatin-induced peripheral neuropathy. Statistical analysis: repeated measures analysis of variance (ANOVA), followed by Dunnett’s post hoc comparison: *** p < 0.001, **** p < 0.0001 (GraphPad Prism 8.0.1). Results obtained before the treatment with oxaliplatin (the gray bar) and after the treatment with oxaliplatin and the compound (post compound 14, the red bars) were compared to the results obtained after the treatment with oxaliplatin and before the administration of the compound (pre compound 14; the white bars).

rats [3] = experiment: Carrageenan-induced paw edema; assay type: in vivo, rat; conditions: 80 mg/kg
Source text: (§2) To test the anti-inflammatory activity and the potential to attenuate inflammatory pain, we tested compound 14 in the model of carrageenan-induced aseptic inflammation. In this model, the subplantar injection of carrageenan induced an edema, mechanical, and thermal hyperalgesia. […] In our opinion, the most surprising and interesting was the long-lasting anti-edematous effect. It may result from the pharmacokinetic properties of compound 14, but also from its unique mechanism. Since inflammation is one of the critical components of neuropathy, the anti-inflammatory activity of compound 14 may be a valuable and distinctive property from classical ASDs used to treat neuropathic pain [33]. […] The pain threshold reached 87.3%, 90.9%, and 89.7% of its initial value 3, 6, and 24 h after carrageenan injection, respectively. […] The initial latency for compound 14-treated animals was 8.95 ± 0.4 s. The administration of compound 14 changed the values to 127.0%, 102.0%, 79.8%, 83.8%, and 164.4% of the initial value 1, 2, 3, 6-, and 24-h following carrageenan injection, respectively.
as §1
(§3) Figure 8 Effect of compound 14 on carrageenan-induced oedema (A), mechanical hyperalgesia (B), and thermal hyperalgesia (C), developed after subplantar injection of 1% carrageenan in rats. Data are expressed as means ± S.E.M. for 6 animals; 0—the initial value considered as the paw volume (A) or nociceptive reaction (B,C) before carrageenan administration. Statistical significance compared to vehicle-treated animals (control): * p < 0.05, ** p < 0.01, *** p < 0.001, **** p < 0.0001. Statistical analysis: two-way ANOVA post hoc Bonferroni test. Statistical significance in different time points of control group: ^# p < 0.05, ^## p < 0.01, ^### p < 0.001. Statistical analysis: one-way ANOVA, followed by Dunnett’s multiple comparison test (GraphPad Prism 8.0.1).

rats [4] = experiment: Carrageenan-induced thermal hyperalgesia (radiant heat); assay type: in vivo, rat; conditions: 80 mg/kg
Source text: as §2, §1, §3

[5] = test system: TTX-sensitive Na+ channel; experiment: Radioligand binding, TTX-sensitive Na+ channel; conditions: rat cerebral cortex
TRPV1 (VR1) (h) = target: T1, TRPV1 (VR1) (h) (Homo sapiens, UniProt Q8NER1); experiment: TRPV1 (VR1) functional assay, antagonist effect; assay type: cell-based; conditions: HEK293, human recombinant HEK-293 cells, read-out: % Inhibition of Control Agonist Response, TRPV1 (VR1) (h) (antagonist effect)
T1 construct: Cerep Laboratories / Eurofins Panlabs (contract assay)
T1 sequence (Q8NER1 whole entry): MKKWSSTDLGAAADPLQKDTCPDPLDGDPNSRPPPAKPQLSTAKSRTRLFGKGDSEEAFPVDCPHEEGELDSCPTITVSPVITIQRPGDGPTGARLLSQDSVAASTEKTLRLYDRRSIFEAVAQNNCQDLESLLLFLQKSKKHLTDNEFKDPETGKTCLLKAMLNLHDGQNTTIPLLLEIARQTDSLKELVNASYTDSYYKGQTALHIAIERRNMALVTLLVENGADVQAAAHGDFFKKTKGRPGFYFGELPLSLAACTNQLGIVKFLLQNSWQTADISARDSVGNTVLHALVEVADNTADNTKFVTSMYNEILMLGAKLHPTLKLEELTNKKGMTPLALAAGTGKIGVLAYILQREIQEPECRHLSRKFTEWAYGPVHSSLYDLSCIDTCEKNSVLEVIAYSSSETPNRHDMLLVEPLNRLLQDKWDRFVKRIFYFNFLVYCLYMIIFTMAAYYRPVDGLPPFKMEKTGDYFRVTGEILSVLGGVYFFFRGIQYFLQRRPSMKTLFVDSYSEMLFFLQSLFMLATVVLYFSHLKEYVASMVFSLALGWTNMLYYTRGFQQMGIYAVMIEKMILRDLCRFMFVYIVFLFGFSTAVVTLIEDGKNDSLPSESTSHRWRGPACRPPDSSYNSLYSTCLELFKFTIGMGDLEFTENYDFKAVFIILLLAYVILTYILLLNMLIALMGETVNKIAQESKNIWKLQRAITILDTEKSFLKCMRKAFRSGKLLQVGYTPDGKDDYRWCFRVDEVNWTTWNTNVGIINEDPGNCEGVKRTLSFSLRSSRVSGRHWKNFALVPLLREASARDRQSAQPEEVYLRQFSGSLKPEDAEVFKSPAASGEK

[6] = test system: Cav1.2 channel (dihydropyridine site, antagonist radioligand); experiment: Radioligand binding, Cav1.2 channel (dihydropyridine site); conditions: rat cerebral cortex
mice [7] = experiment: Maximal electroshock seizure (MES) test; assay type: in vivo, mouse; conditions: mice i.p.
[8] = Mus musculus, ip, 95% confidence interval in parentheses

## CN(C)C1CC(=O)N(C(C(=O)N2CCN(c3cccc(C(F)(F)F)c3)CC2)c2ccccc2)C1=O.Cl (centres unmarked) [Compound 14, 3-(Dimethylamino)-1-(2-oxo-1-phenyl-2-(4-(3-(trifluoromethyl)phenyl)-piperazin-1-yl)ethyl)pyrrolidine-2,5-dione hydrochloride]
In vivo
  TD50: 169 mg/kg
Mice [1]; [8]
  ED50: 31.3 mg/kg
Mice [1]; 100 mg/kg, 0.5 h
  6 Hz (32 mA) screening: number of mice protected / number of mice tested: 3/4
  protection in the 6 Hz (32 mA) test: 75%
Mice [2]; 40 mg/kg
  pain sensitivity threshold (von Frey), early phase: 2.61 ± 0.08 g
  pain threshold as % of the baseline value, early phase: 86.4%
  pain threshold (von Frey), late phase: 2.45 ± 0.06 g
  pain threshold as % of the baseline value, late phase: 81.1%
Mice [2]; 60 mg/kg
  pain sensitivity threshold (von Frey), early phase: 2.94 ± 0.04 g
  pain threshold as % of the baseline value, early phase: 97.3%
  pain threshold (von Frey), late phase: 2.88 ± 0.04 g
  pain threshold as % of the baseline value, late phase: 95.3%
Mice [2]; 80 mg/kg
  pain sensitivity threshold (von Frey), early phase: 3.05 ± 0.08 g
  pain threshold as % of the baseline value, early phase: 100.9%
  pain threshold (von Frey), late phase: 2.98 ± 0.06 g
  pain threshold as % of the baseline value, late phase: 98.6%
Rats [3]; 1 h after carrageenan
  reduction of paw edema: 36.8%
Rats [3]; 2 h after carrageenan
  reduction of paw edema: 55.8%
Rats [3]; 3 h after carrageenan
  reduction of paw edema: 62.9%
Rats [3]; 6 h after carrageenan
  reduction of paw edema: 68.6%
Rats [3]; 24 h after carrageenan
  reduction of paw edema: 74.3%
Rats [4]; 1 h after carrageenan
  latency of nociceptive response to radiant heat, % of the initial value: 127.0%
Rats [4]; 2 h after carrageenan
  latency of nociceptive response to radiant heat, % of the initial value: 102.0%
Rats [4]; 3 h after carrageenan
  latency of nociceptive response to radiant heat, % of the initial value: 79.8%
Rats [4]; 6 h after carrageenan
  latency of nociceptive response to radiant heat, % of the initial value: 83.8%
Rats [4]; 24 h after carrageenan
  latency of nociceptive response to radiant heat, % of the initial value: 164.4%
[5]; 10 µM
  % Inhibition of Control-Specific Binding, TTX-sensitive Na+ channel: 31.0%
[5]; 50 µM
  % Inhibition of Control-Specific Binding, TTX-sensitive Na+ channel: 90.3%
TRPV1 (VR1) (h); 10 µM
  inhibition at 10 µM: 17.3%
TRPV1 (VR1) (h); 50 µM
  inhibition at 50 µM: 88.8%
[6]; 10 µM
  % Inhibition of Control-Specific Binding, Cav1.2 channel (dihydropyridine site, antagonist radioligand): 6.0%
[6]; 50 µM
  % Inhibition of Control-Specific Binding, Cav1.2 channel (dihydropyridine site, antagonist radioligand): 75.4%
Mice [7]; [8]
  ED50: 49.6 mg/kg
Mice [7]; 100 mg/kg, 0.5 h
  MES screening: number of mice protected / number of mice tested: 4/4
  protection in the MES test: 100%
